Results as given in patent publication US7049116B2, “Engineered protein kinases which can utilize modified nucleotide triphosphate substrates” (Princeton University, priority 1997, dated 2006).
“Also recorded” adds a separate entry of the source.

Key:
[1] = system: B cell receptor (BCR) mediated phosphorylation cascade in murine spleen cells; assay: Murine B cell assay (B cell receptor mediated tyrosine phosphorylation); assay type: cell-based; details: 100 μM in […] DMSO, anti-IgM stimulated murine spleen cells
Protocol: Splenic lymphocytes were isolated from 6-20 week old Balb/c or C57/B6 mice. The cells were washed out of the spleen into RPMI media containing 1 mg/ml DNase I and the red blood cells were lysed in 17 mM tris-ammonium chloride (pH 7.2). Approximately 4×10^6 cells were incubated at 37° C. for thirty minutes with 100 μM of (3g) or (2) in 1.1% DMSO. B cell stimulation was initiated by the addition of […] of goat anti-mouse IgM (Jackson ImmunoResearch) and subsequent incubation for five minutes at 37° C. The cells were isolated by centrifugation (13,000 rpm, two minutes) and lysed (lysis buffer: 1% Triton x-100, 50 mM Tris (pH 7.4), 2 mM EDTA, 150 mM NaCl, 100 mM PMSF, 2 mM sodium orthovanadate, 10 mg/ml leupeptin, 10 mg/ml apoprotin). The cellular debris was then pelleted at 13,000 rpm for fifteen minutes. Cellular proteins were separated by 10% polyacrylamide gel electrophoresis and transferred to a nitrocellulose membrane by Western blotting. Phosphotyrosine containing proteins were visualized by immunoblotting with anti-phosphotyrosine antibody (Upstate Biotechnology).

WT Fyn [2] = biological target: T1, WT Fyn (Homo sapiens, UniProt P06241); assay: In vitro kinase inhibition assay; assay type: biochemical; parameters: inhibition of Fyn: dose or concentration left out as unconfirmed
T1 construct: GST; made in house; host or cells: E. coli DH5α (pGEX-KT)

GST-XD4 (I338A) = biological target: T2, GST-XD4 (I338A) (Rous sarcoma virus subgroup A, UniProt P00524, DEL77-225/I338A); assay: Autophosphorylation of single mutation v-Src mutants; assay type: biochemical; details: mutant with alanine at position 338
T2 construct: made in house
Description: (§1) However, these had only single mutations, at position 338. These were again expressed as GST-XD4 fusion proteins.
(§2) The panels on the right side of FIG. 7 tell an even more interesting story.

GST-XD4 [3] = biological target: T3, GST-XD4 (Rous sarcoma virus subgroup A, UniProt P00524, DEL77-225); assay type: biochemical
T3 construct: contains an intact SH1 catalytic domain but lacks the non-catalytic regulatory SH3 and SH2 domains; made in house; host or cells: E. coli DH5α (pGEX-KT)
Protocol: (§3) Kinetic constants were determined by analysis of Lineweaver-Burk plots of the rate data (64). […] ATP (1000 cpm/pmol) or [γ-^32P] N^6(cyclopentyl)ATP (5000 cpm/pmol) as indicated.

GST-XD4 (V323A, I338A) [4] = assay type: biochemical, Rous sarcoma virus
Protocol: as §3

GST-XD4 (V323A, I338A) [5] = biological target: T4, GST-XD4 (V323A, I338A) (Rous sarcoma virus subgroup A, UniProt P00524, DEL77-225/I338A/V323A); assay type: biochemical; details: GST-XD4 (V323A, I338A), 1 mM RR-Src, 37° C., pH 8.0
T4 construct: contains an intact SH1 catalytic domain but lacks the non-catalytic regulatory SH3 and SH2 domains; made in house; host or cells: E. coli DH5α (pGEX-KT)
Protocol: as §3

[6] = system: tyrosine kinases of murine lymphocyte cell lysate (CF); assay: Screening of nucleotide analogs in murine lymphocyte lysate, anti-phosphotyrosine immunoblot; assay type: biochemical; details: 100 μM nucleotide triphosphate, 37° C., five minutes
Protocol: To identify compounds that would not be accepted as substrates by any existing cellular kinases (53), Applicant screened a panel of synthetic A^*TP analogs in a murine lymphocyte lysate (CF) rich in protein tyrosine kinases (13).
The assays were performed using spleenocytes (8-30 week old male and female C57/B6 mice from the Princeton University Animal Facility) which were isolated and washed in RPMI-1640 medium containing 5% Bovine Calf Serum (BCS), 1% Hepes and DNaseI (1 μg/ml). Red cells were lysed at 4° C. by treatment with 17 mM Tris ammonium chloride (pH 7.2). The cells were hypotonically lysed on ice for ten minutes in 1 mM Hepes (pH 7.4), 5 mM MgCl2, leupeptin (10 μg/ml), aprotinin (10 μg /ml) and 100 μM PMSF according to the method of Fukazawa et al. (51). After vortexing and centrifugation at 500 × g, the supernatant was collected. Cells were stored at 4° C. for twenty minutes to attenuate the basal protein phosphorylation level, after which the buffer was adjusted to 20 mM Hepes (pH 7.4), 10 mM MgCl2 and 1 mM NaF. Sodium vanadate (100 μM) was then added to inhibit the activity of phosphotyrosine phosphatases.
Each nucleotide triphosphate was added to a final concentration of 100 μM to 5×10^6 cell equivalents and incubated at 37° C. for five minutes after which 4 × Laemmli gel loading buffer was added to the cell lysate to quench the reaction. Proteins were separated by 12.5% SDS-PAGE and transferred to Protran BA85 (Schleicher-Schuell). The blot was probed with the anti-phosphotyrosine monoclonal antibody 4G10 (Upstate Biotechnology) and the bound antibody was detected via enhanced chemiluminescence (Pierce) following treatment with HRP-coupled goat anti-mouse antibody (VWR catalog #710133) according to the manufacturer's instructions.
The cell lysate used includes the tyrosine kinases Src, Fyn, Lck, Lyn, Yes, Fgr, Hck, Zap, Syk, Btk, Blk, and other tyrosine kinases present in B and T lymphocytes, macrophages, and follicular dendritic cells (13). Molecular size standards (in kilodaltons) arc indicated.

I338G v-Src = biological target: T5, I338G v-Src (Rous sarcoma virus subgroup A, UniProt P00524, DEL77-225/I338G); assay: biochemical
T5 construct: made in house; host or cells: E. coli DH5α (pGEX-KT)

GST-XD4 (V323A, I338A) [7] = details: 100 μM analog, 10 μM [γ-32P]ATP
GST-XD4 (I338G) = biological target: T6, GST-XD4 (I338G) (Rous sarcoma virus subgroup A, UniProt P00524, DEL77-225/I338G); assay: Autophosphorylation of single mutation v-Src mutants; assay type: biochemical; details: mutant with glycine at position 338
T6 construct: made in house; host or cells: E. coli DH5α (pGEX-KT)
Description: as §1, §2

GST-XD4 (I338S) = biological target: T7, GST-XD4 (I338S) (Rous sarcoma virus subgroup A, UniProt P00524, DEL77-225/I338S); assay: as above; assay type: biochemical; details: mutant with serine at position 338
T7 construct: made in house
Description: as §1, §2

[8] = system: wild-type cellular kinases of murine lymphocyte lysates; assay: In vitro kinase reactions with radiolabeled nucleotide in murine lymphocyte lysates; assay type: biochemical; details: 100 μM radiolabeled nucleotide, 37° C., ten minutes
GST-XD4 (V323A, I338A) [9] = biological target: T4, GST-XD4 (V323A, I338A); assay: Autophosphorylation autoradiogram; assay type: biochemical; details: FIG. 5C lane 4
Description: (§4) It is even more significant that the new substrate, [γ-^32P]

GST-XD4 [10] = biological target: T3, GST-XD4; assay: Autophosphorylation autoradiogram; assay type: biochemical; details: GST-XD4, FIG. 5C lane 3
Description: as §4

PDGFR = details: cited from earlier work
WT Fyn [11] = biological target: T1, WT Fyn; details: published parent molecule; cited from earlier work

T1 sequence (P06241 1-534 isoform P06241-2): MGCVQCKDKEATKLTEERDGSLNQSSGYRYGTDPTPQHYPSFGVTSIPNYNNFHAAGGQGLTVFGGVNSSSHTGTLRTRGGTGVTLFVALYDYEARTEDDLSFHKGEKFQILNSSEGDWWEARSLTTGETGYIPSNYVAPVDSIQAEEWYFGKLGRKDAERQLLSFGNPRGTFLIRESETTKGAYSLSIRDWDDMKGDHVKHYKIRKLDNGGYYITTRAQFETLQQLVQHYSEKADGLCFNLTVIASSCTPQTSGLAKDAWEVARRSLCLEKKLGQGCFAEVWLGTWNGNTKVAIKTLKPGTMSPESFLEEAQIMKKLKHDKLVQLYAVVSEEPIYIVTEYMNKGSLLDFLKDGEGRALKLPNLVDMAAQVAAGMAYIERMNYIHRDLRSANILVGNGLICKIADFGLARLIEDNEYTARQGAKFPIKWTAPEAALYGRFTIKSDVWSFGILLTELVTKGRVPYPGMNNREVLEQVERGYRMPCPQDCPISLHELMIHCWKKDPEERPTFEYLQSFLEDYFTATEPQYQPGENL

CC(C)(C)n1nc(-c2ccccc2)c2c(N)ncnc21 [(2), 4-amino-1-tert-butyl-3-phenylpyrazolo(3,4-d)pyrimidine, reference compound]
phosphotyrosine pattern of B cell stimulation [1]: significant reduction in tyrosine phosphorylation | inhibition of WT Fyn (in words) (WT Fyn [2]): highly potent (low nM)

Nc1ncnc2c1ncn2[C@@H]1O[C@H](COP(=O)(O)OP(=O)(O)OP(=O)(O)O)[C@@H](O)[C@H]1O [ATP, adenosine triphosphate, reference compound]
utilization as phosphate donor substrate (autophosphorylation) (GST-XD4 (I338A)): more readily than the mutant with serine; also recorded: better able to use ATP as a substrate than is the mutant with glycine | kcat (GST-XD4 [3]; GST-XD4, 1 mM RR-Src, 37° C., pH 8.0): 0.033 ± 0.0083 s⁻¹ | KM of the mutant for ATP relative to KM of GST-XD4 for ATP (GST-XD4 (V323A, I338A) [4]; higher in mutant): more than 10 fold | kcat (GST-XD4 (V323A, I338A) [5]): 0.013 ± 0.0033 s⁻¹

CONc1ncnc2c1ncn2[C@@H]1O[C@H](COP(=O)(O)OP(=O)(O)OP(=O)(O)O)[C@@H](O)[C@H]1O [Analog 1, N^6(methoxy)ATP]
level of protein tyrosine phosphorylation (ability to serve as cellular tyrosine kinase substrate) [6]: some ability to serve as cellular tyrosine kinase substrates

CCONc1ncnc2c1ncn2[C@@H]1O[C@H](COP(=O)(O)OP(=O)(O)OP(=O)(O)O)[C@@H](O)[C@H]1O [Analog 2, N^6(ethoxy)ATP]
level of protein tyrosine phosphorylation (ability to serve as cellular tyrosine kinase substrate) [6]: some ability to serve as cellular tyrosine kinase substrates

CC(=O)Nc1ncnc2c1ncn2[C@@H]1O[C@H](COP(=O)(O)OP(=O)(O)OP(=O)(O)O)[C@@H](O)[C@H]1O [Analog 3, N^6(acetyl)ATP]
level of protein tyrosine phosphorylation (ability to serve as cellular tyrosine kinase substrate) [6]: some ability to serve as cellular tyrosine kinase substrates

CC(C)ONc1ncnc2c1ncn2[C@@H]1O[C@H](COP(=O)(O)OP(=O)(O)OP(=O)(O)O)[C@@H](O)[C@H]1O [Analog 4, N^6(i-propoxy)ATP]
level of protein tyrosine phosphorylation (ability to serve as cellular tyrosine kinase substrate) [6]: little or no protein phosphorylation

CC(C)(C)n1nc(-c2ccccc2)c2c(NCC3CCCC3)ncnc21 [Analog 4b, 4-cyclopentylmethylamino-1-tert-butyl-3-phenylpyrazolo[3,4-d]pyrimidine]
inhibition of I338G v-Src (in words) (I338G v-Src): only poor to moderate inhibition | inhibition of WT Fyn (in words) (WT Fyn [2]): sufficiently orthogonal

CC(C)(C)n1nc(-c2ccccc2)c2c(NCc3ccco3)ncnc21 [Analog 4d, 4-2′-furylmethylamino-1-tert-butyl-3-phenylpyrazolol[3,4-d]pyrimidine]
inhibition of I338G v-Src (in words) (I338G v-Src): only poor to moderate inhibition | inhibition of WT Fyn (in words) (WT Fyn [2]): sufficiently orthogonal

CC(C)(C)n1nc(-c2ccccc2)c2c(NCc3ccccc3)ncnc21 [Analog 4e, 4-benzylamino-1-tert-buty-3-phenylpyrazolo[3,4-d]pyrimidine]
inhibition of I338G v-Src (in words) (I338G v-Src): only poor to moderate inhibition | inhibition of WT Fyn (in words) (WT Fyn [2]): sufficiently orthogonal

O=P(O)(O)OP(=O)(O)OP(=O)(O)OC[C@H]1O[C@@H](n2cnc3c(NCc4ccccc4)ncnc32)[C@H](O)[C@@H]1O [Analog 5, N^6(benzyl)ATP]
level of protein tyrosine phosphorylation (ability to serve as cellular tyrosine kinase substrate) [6]: little or no protein phosphorylation | relative inhibition of GST-XD4 (V323A, I338A) catalyzed RR-Src phosphorylation (GST-XD4 (V323A, I338A) [7]): almost as well as the wild-type kinase

O=P(O)(O)OP(=O)(O)OP(=O)(O)OC[C@H]1O[C@@H](n2cnc3c(NOCc4ccccc4)ncnc32)[C@H](O)[C@@H]1O [Analog 6, N^6(benzyloxy)ATP]
level of protein tyrosine phosphorylation (ability to serve as cellular tyrosine kinase substrate) [6]: little or no protein phosphorylation

O=P(O)(O)OP(=O)(O)OP(=O)(O)OCC1OC(n2cnc3c(NC4CCCC4)ncnc32)C(O)C1O (stereo not shown) [Analog 8, N^6(cyclopentyl)ATP]
utilization as phosphate donor substrate (autophosphorylation) (GST-XD4 (I338G)): better able to use N^6(cyclopentyl)ATP as substrate than is the mutant with alanine | utilization as phosphate donor substrate (autophosphorylation) (GST-XD4 (I338S)): not able to utilize N6(cyclopentyl)ATP nearly as well as is the mutant with alanine | radiolabeled phosphoproteins in cell lysate [8]: no radiolabeled phosphoproteins | level of protein tyrosine phosphorylation (ability to serve as cellular tyrosine kinase substrate) [6]: slightly lower level of phosphorylation with wild-type kinases | phosphorylation of RR-Src peptide with the nucleotide as phosphate donor (GST-XD4 [3]; wild-type GST-XD4): did not substantially phosphorylate | use as phosphodonor for autophosphorylation (GST-XD4 (V323A, I338A) [9]): efficiently autophosphorylated | use as phosphodonor for autophosphorylation (GST-XD4 [10]): apparent complete inability | relative inhibition of GST-XD4 (V323A, I338A) catalyzed RR-Src phosphorylation (GST-XD4 (V323A, I338A) [7]): almost as well as the wild-type kinase | kcat/KM of mutant with orthogonal substrate relative to kcat/KM of wild-type kinase with ATP (GST-XD4 (V323A, I338A) [4]; lower than wild-type with ATP): 50 fold | kcat (GST-XD4 (V323A, I338A) [5]): 0.00083 ± 0.00033 s⁻¹

O=P(O)(O)OP(=O)(O)OP(=O)(O)OC[C@H]1O[C@@H](n2cnc3c(NOC4CCCC4)ncnc32)[C@H](O)[C@@H]1O [Analog 9, N^6(cyclopentyloxy)ATP]
relative inhibition of GST-XD4 (V323A, I338A) catalyzed RR-Src phosphorylation (GST-XD4 (V323A, I338A) [7]): almost as well as the wild-type kinase

O=P(O)(O)OP(=O)(O)OP(=O)(O)OC[C@H]1O[C@@H](n2cnc3c(NC4CCCCC4)ncnc32)[C@H](O)[C@@H]1O [Analog 11, N^6(cyclohexyl)ATP]
relative inhibition of GST-XD4 (V323A, I338A) catalyzed RR-Src phosphorylation (GST-XD4 (V323A, I338A) [7]): almost as well as the wild-type kinase

OCC1OC(n2cnc3c(NOC4CCCC4)ncnc32)C(O)C1O (stereo not shown) [N^6 cyclopentyloxyadenosine]
inhibition of Fyn (WT Fyn [2]; concentrations up): no detectable in vitro inhibition

Cc1ccc(-c2nn(C(C)(C)C)c3ncnc(N)c23)cc1 [PPI, 4-amino-1-tert-butyl-3-(p-methylphenyl)pyrazolo(3,4-d)pyrimidine]
inhibition of Fyn (in words) (WT Fyn [11]): highly potent (low nM)
